From ChEMBL document CHEMBL2169870, “A novel aminopeptidase N inhibitor developed by virtual screening approach” (Bioorg Med Chem Lett, 2012)
Active and inactive are the calls of the source. The calls are words filed in the database; no cut-off is given here.

Columns and labels:
NB-4 [1] = assay: Cytotoxicity against human NB4 cells after 48 hrs by MTT assay; details: NB-4, 48 h
HL-60 [2] = assay: Cytotoxicity against human HL60 cells after 48 hrs by MTT assay; details: HL-60, 48 h
[3] = Cytotoxicity against human ES2 cells after 48 hrs by MTT assay; details: ES-2, 48 h
MDA-MB-231 [4] = assay: Cell cycle arrest in human MDA-MB-231 cells assessed as accumulation at G2 phase at 300 uM after 48 hrs using propidium iodide staining by flow cytometry (reference value: 18.35%); assay type: functional
NIH3T3 = assay: Cytotoxicity against mouse NIH/3T3 cells after 48 hrs by MTT assay; assay type: cell-based
HCT-116 = assay: Cytotoxicity against human HCT116 cells after 48 hrs by MTT assay; details: HCT-116, 48 h
MDA-MB-231 [5] = assay: Induction of apoptosis in human MDA-MB-231 cells assessed as early apoptotic cells at 300 uM after 24 hrs using annexin-V-FITC staining by flow cytometry (reference value: 1.69%); assay type: functional
MCF7 [6] = assay: Cytotoxicity against human MCF7 cells after 48 hrs by MTT assay; details: MCF7, 48 h
K562 = assay: Cytotoxicity against human K562 cells after 48 hrs by MTT assay; details: K562, 48 h
MDA-MB-231 [7] = assay: Cell cycle arrest in human MDA-MB-231 cells assessed as accumulation at S phase at 300 uM after 48 hrs using propidium iodide staining by flow cytometry (reference value: 33.25%); assay type: functional
PC-3 = assay: Cytotoxicity against human PC3 cells after 48 hrs by MTT assay; details: PC-3, 48 h
MDA-MB-231 [8] = assay: Cytotoxicity against human MDA-MB-231 cells after 48 hrs by MTT assay; details: MDA-MB-231, 48 h
MDA-MB-231 [9] = assay: Cell cycle arrest in human MDA-MB-231 cells assessed as accumulation at G1 phase at 300 uM after 48 hrs using propidium iodide staining by flow cytometry (reference value: 48.40%); assay type: functional
SK-OV-3 [10] = assay: Cytotoxicity against human SKOV3 cells after 48 hrs by MTT assay; details: SK-OV-3, 48 h
MDA-MB-231 [11] = assay: Induction of apoptosis in human MDA-MB-231 cells assessed as late apoptotic cells at 300 uM after 24 hrs using annexin-V-FITC staining by flow cytometry (reference value: 1.69%); assay type: functional
MDA-MB-231 [12] = assay: Antimetastatic activity in human MDA-MB-231 cells assessed as inhibition of cell invasion at 300 uM after 20 hrs by matrigel assay; assay type: functional, cell-based
A549 = assay: Cytotoxicity against human A549 cells after 48 hrs by MTT assay; details: A549, 48 h
HeLa [13] = assay: Cytotoxicity against human HeLa cells after 48 hrs by MTT assay
Aminopeptidase N = biological target: T1, Aminopeptidase N (Sus scrofa, UniProt P15145); assay: Inhibition of porcine kidney microsome aminopeptidase using L-Leu-p-nitroanilide as substrate after 30 mins
T1 sequence (P15145 whole entry): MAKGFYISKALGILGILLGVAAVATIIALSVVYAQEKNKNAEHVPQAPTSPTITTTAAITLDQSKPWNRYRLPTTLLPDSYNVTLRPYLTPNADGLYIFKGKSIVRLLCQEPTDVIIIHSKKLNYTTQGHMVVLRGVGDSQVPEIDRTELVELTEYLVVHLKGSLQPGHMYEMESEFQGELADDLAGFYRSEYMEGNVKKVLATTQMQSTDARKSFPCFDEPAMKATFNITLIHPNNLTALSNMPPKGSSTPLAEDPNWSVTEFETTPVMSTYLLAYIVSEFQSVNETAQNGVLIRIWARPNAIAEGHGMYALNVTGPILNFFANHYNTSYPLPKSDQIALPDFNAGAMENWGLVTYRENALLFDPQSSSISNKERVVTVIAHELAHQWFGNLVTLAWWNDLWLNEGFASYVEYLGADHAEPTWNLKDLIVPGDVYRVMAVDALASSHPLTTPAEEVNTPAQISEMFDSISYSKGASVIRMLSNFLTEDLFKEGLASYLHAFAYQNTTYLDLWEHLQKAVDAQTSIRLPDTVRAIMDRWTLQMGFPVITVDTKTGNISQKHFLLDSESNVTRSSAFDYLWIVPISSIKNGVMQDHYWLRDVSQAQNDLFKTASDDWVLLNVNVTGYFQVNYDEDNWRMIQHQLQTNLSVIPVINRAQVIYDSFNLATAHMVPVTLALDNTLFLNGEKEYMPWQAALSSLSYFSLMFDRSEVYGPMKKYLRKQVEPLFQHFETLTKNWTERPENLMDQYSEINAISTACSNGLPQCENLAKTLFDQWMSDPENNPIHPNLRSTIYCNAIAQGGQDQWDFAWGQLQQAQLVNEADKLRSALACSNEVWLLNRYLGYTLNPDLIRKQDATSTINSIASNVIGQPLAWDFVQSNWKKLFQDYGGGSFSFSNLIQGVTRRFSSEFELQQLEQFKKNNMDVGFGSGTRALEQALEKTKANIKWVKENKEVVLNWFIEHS

MCF7 [14] = assay: Cytotoxicity against human MCF7 cells after 48 hrs by MTT assay
NB-4 [15] = assay: Cytotoxicity against human NB4 cells after 48 hrs by MTT assay
MDA-MB-231 [16] = assay: Cell cycle arrest in human MDA-MB-231 cells assessed as accumulation at G2 phase at 20 uM after 48 hrs using propidium iodide staining by flow cytometry (reference value: 18.35%); assay type: functional
MDA-MB-231 [17] = assay: Antimetastatic activity in human MDA-MB-231 cells assessed as inhibition of cell invasion at 20 uM after 20 hrs by matrigel assay; assay type: functional, cell-based
MDA-MB-231 [18] = assay: Cell cycle arrest in human MDA-MB-231 cells assessed as accumulation at G1 phase at 20 uM after 48 hrs using propidium iodide staining by flow cytometry (reference value: 48.40%); assay type: functional
MDA-MB-231 [19] = assay: Cell cycle arrest in human MDA-MB-231 cells assessed as accumulation at S phase at 20 uM after 48 hrs using propidium iodide staining by flow cytometry (reference value: 33.25%); assay type: functional
ES2 = assay: Cytotoxicity against human ES2 cells after 48 hrs by MTT assay
HeLa [20] = assay: Cytotoxicity against human HeLa cells after 48 hrs by MTT assay
HL-60 [21] = assay: Cytotoxicity against human HL60 cells after 48 hrs by MTT assay
SK-OV-3 [22] = assay: Cytotoxicity against human SKOV3 cells after 48 hrs by MTT assay
MDA-MB-231 [23] = assay: Induction of apoptosis in human MDA-MB-231 cells assessed as late apoptotic cells at 20 uM after 24 hrs using annexin-V-FITC staining by flow cytometry (reference value: 1.69%); assay type: functional
MDA-MB-231 [24] = assay: Induction of apoptosis in human MDA-MB-231 cells assessed as early apoptotic cells at 20 uM after 24 hrs using annexin-V-FITC staining by flow cytometry (reference value: 1.69%); assay type: functional

CC(C)C[C@H](NC(=O)[C@@H](O)[C@H](N)Cc1ccccc1)C(=O)O [UBENIMEX]
IC50 (NB-4 [1]): 221 µM | IC50 (HL-60 [2]): 86.4 µM | IC50 [3]: 74.5 µM | Activity (MDA-MB-231 [4]): 7.03% | IC50 (NIH3T3; Mus musculus, NIH3T3, 48 h): > 1000 µM | IC50 (HCT-116): > 1000 µM | Activity (MDA-MB-231 [5]): 8.54% | IC50 (MCF7 [6]): > 1000 µM | IC50 (K562): 136 µM | Activity (MDA-MB-231 [7]): 15.06% | IC50 (PC-3): 399 µM | IC50 (MDA-MB-231 [8]): 50.6 µM | Activity (MDA-MB-231 [9]): 77.91% | IC50 (SK-OV-3 [10]): > 1000 µM | Activity (MDA-MB-231 [11]): 2.14% | Activity (MDA-MB-231 [12]): Active | IC50 (A549): 513 µM | IC50 (HeLa [13]): 155 µM

CCOC(=O)/C(N)=N/NS(=O)(=O)c1ccc(C)cc1
IC50 (Aminopeptidase N): 321 µM

NC(=S)NNC(=O)c1ccccc1C(=O)O
IC50 (Aminopeptidase N): > 1000 µM

O=C(O)COc1ccc(/C=N/n2c(COc3ccccc3)nc3ccccc3c2=O)cc1
IC50 (Aminopeptidase N): 188 µM

O=C(CN1C(=O)C2(OCCO2)c2cc(Br)ccc21)NO
Activity (MCF7 [14]): Dose-dependent effect | Activity (NIH3T3; mouse, nih3t3, 48 h): Dose-dependent effect | Activity (NB-4 [15]): Dose-dependent effect | Activity (MDA-MB-231 [16]): 3.83% | Activity (MDA-MB-231 [17]): Active | Activity (MDA-MB-231 [18]): 93.27% | Activity (MDA-MB-231 [19]): 2.9% | Activity (ES2): Dose-dependent effect | Activity (HeLa [20]): Dose-dependent effect | Activity (HL-60 [21]): Dose-dependent effect | Activity (SK-OV-3 [22]): Dose-dependent effect | Activity (MDA-MB-231 [23]): 5.35% | Activity (MDA-MB-231 [24]): 4.99%

NC(=O)c1ccccc1NC(=O)c1ccccc1C(=O)O
IC50 (Aminopeptidase N): 66.3 µM

CC[C@H](N)[C@H](O)c1ccc(OC)cc1
IC50 (Aminopeptidase N): > 1000 µM

NS(=O)(=O)c1ccc(-n2cccc2/C=C2/C(=O)NN(c3ccc(Cl)cc3)C2=O)cc1
IC50 (Aminopeptidase N): > 1000 µM

CC(=O)NC(=S)NNC(=O)COc1ccc(Br)cc1
IC50 (Aminopeptidase N): 227 µM

COc1cc(/C=C2/C(=O)NC(=O)N(Cc3ccc(F)cc3)C2=O)cc(OC)c1O
IC50 (Aminopeptidase N): 78.9 µM

O=C1NC(=O)C(=NNc2cc([N+](=O)[O-])ccc2O)C(=O)N1
IC50 (Aminopeptidase N): > 1000 µM

Cc1cc(/C=N/Nc2ccc([N+](=O)[O-])cc2[N+](=O)[O-])c(C)n1-c1ccc(S(N)(=O)=O)cc1
IC50 (Aminopeptidase N): > 1000 µM

Nc1nc2c(ncn2S(=O)(=O)c2cccc(C(=O)O)c2)c(=O)[nH]1
IC50 (Aminopeptidase N): 202 µM

Nn1c(COc2ccccc2)n[nH]c1=S
IC50 (Aminopeptidase N): 424 µM

NNC(=O)/C(=C/c1ccc([N+](=O)[O-])cc1)NC(=O)c1ccc(Br)cc1
IC50 (Aminopeptidase N): 438 µM

C=CCN/C(S)=N/C=C1C(=O)NC(=O)NC1=O
IC50 (Aminopeptidase N): 65.9 µM

Cc1[nH]cnc1/C=N/NC(N)=S
IC50 (Aminopeptidase N): > 1000 µM

O=C1Nc2ccccc2/C1=C1/SC(=S)N(NC(=O)c2cccc(O)c2)C1=O
IC50 (Aminopeptidase N): 170 µM

O=C1NC(=O)C(=NNc2cccc(C(=O)O)c2)C(=O)N1
IC50 (Aminopeptidase N): > 1000 µM
